Strand notation (5' to 3'): a small letter for the sugar, then the base; units joined by * are phosphorothioate-linked, units joined directly phosphodiester-linked; [ ] holds rarer units or linkages, { } end groups; capitals alone tell only the bases. k = constrained ethyl (cEt); [5mC] = 5-methylcytosine; d = 2'-deoxy (DNA)
Each substance was assayed on human SMAD7 mRNA (assay: Antisense inhibition of human SMAD7 mRNA expression in Hep3B cells by 3-10-3 cEt gapmers, 10,000 nM, electroporation (Example 2)). Conditions: Hep3B cells, electroporation with 10,000 nM antisense oligonucleotide, approximately 24 hours, SMAD7 mRNA by RT-PCR (RTS5062), relative to untreated control cells.
Type: cell-based
Method in brief: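 Hep3B, 20,000 cells/well; electroporation, 10,000 nM ASO; ~24 h. Readout: SMAD7 mRNA by qRT-PCR (RTS5062), RIBOGREEN-normalised; % inhibition vs untreated.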

For “798751 (k[5mC]*k[5mC]*kG*dG*dG*d[5mC]*dA*dG*d[5mC]*dA*dG*dG*dA*kG*kG*k[5mC]; antisense) [compound 798751]”, which “% Inhibition” value is on record?
The value was 0%.

Which “% Inhibition” value does the source give for “798752 (k[5mC]*kG*kG*d[5mC]*d[5mC]*dG*dG*dG*d[5mC]*dA*dG*d[5mC]*dA*kG*kG*kA; antisense) [compound 798752]” here?
Its value is 0%.

For “798753 (kT*kG*k[5mC]*dA*dG*dT*d[5mC]*d[5mC]*dA*dG*dG*d[5mC]*dG*kG*k[5mC]*k[5mC]; antisense) [compound 798753]”, which “% Inhibition” value is on record?
Its value is 0%.

“798754 (kA*kG*k[5mC]*d[5mC]*dT*dG*d[5mC]*dA*dG*dT*d[5mC]*d[5mC]*dA*kG*kG*k[5mC]; antisense) [compound 798754]” was tested. Which “% Inhibition” value did it give?
The value was 16%.

Which “% Inhibition” value does the source give for “798755 (kG*k[5mC]*k[5mC]*d[5mC]*dA*dG*d[5mC]*d[5mC]*dT*dG*d[5mC]*dA*dG*kT*k[5mC]*k[5mC]; antisense) [compound 798755]” here?
Its value is 46%.

With “798756 (k[5mC]*kG*k[5mC]*d[5mC]*d[5mC]*d[5mC]*d[5mC]*dG*dG*dG*d[5mC]*d[5mC]*d[5mC]*kA*kG*k[5mC]; antisense) [compound 798756]” as the substance, how does the “% Inhibition” value read?
Its value is 16%.

For “798757 (kG*k[5mC]*kG*d[5mC]*dA*dG*dG*d[5mC]*dT*dG*d[5mC]*dG*d[5mC]*kG*k[5mC]*k[5mC]; antisense) [compound 798757]”, which “% Inhibition” value is on record?
The value was 0%.

With “798766 (k[5mC]*kT*kG*dA*dA*d[5mC]*dA*d[5mC]*dT*dT*dT*dG*d[5mC]*kA*k[5mC]*kA; antisense) [compound 798766]” as the substance, how does the “% Inhibition” value read?
The value was 34%.

With “798767 (kT*k[5mC]*k[5mC]*dG*dG*d[5mC]*d[5mC]*dA*d[5mC]*d[5mC]*dT*dG*dA*kA*k[5mC]*kA; antisense) [compound 798767]” as the substance, how does the “% Inhibition” value read?
Its value is 0%.

How did the “% Inhibition” value turn out when “798768 (kG*kA*kG*dA*dT*d[5mC]*d[5mC]*dG*dG*d[5mC]*d[5mC]*dA*d[5mC]*k[5mC]*kT*kG; antisense) [compound 798768]” was run?
Its value is 42%.

How did the “% Inhibition” value turn out when “798769 (k[5mC]*k[5mC]*kT*dG*dA*dG*dA*dT*d[5mC]*d[5mC]*dG*dG*d[5mC]*k[5mC]*kA*k[5mC]; antisense) [compound 798769]” was run?
The value was 58%.

How did the “% Inhibition” value turn out when “798770 (kA*kG*kG*dA*dA*dT*dG*d[5mC]*d[5mC]*dT*dG*dA*dG*kA*kT*k[5mC]; antisense) [compound 798770]” was run?
The value was 47%.

For “798771 (k[5mC]*k[5mC]*kG*dA*dG*dG*dA*dA*dT*dG*d[5mC]*d[5mC]*dT*kG*kA*kG; antisense) [compound 798771]”, which “% Inhibition” value is on record?
The value was 62%.

For “798772 (k[5mC]*kT*kT*d[5mC]*d[5mC]*dG*dA*dG*dG*dA*dA*dT*dG*k[5mC]*k[5mC]*kT; antisense) [compound 798772]”, which “% Inhibition” value is on record?
The value was 48%.

Which “% Inhibition” value does the source give for “798782 (kT*kG*k[5mC]*dA*dG*d[5mC]*dA*d[5mC]*dA*d[5mC]*d[5mC]*dA*dG*k[5mC]*kT*k[5mC]; antisense) [compound 798782]” here?
The value was 51%.

How did the “% Inhibition” value turn out when “798783 (k[5mC]*kG*kG*d[5mC]*dT*dA*dA*dG*dG*dT*dG*dA*dT*kG*kG*kG; antisense) [compound 798783]” was run?
The value was 45%.

“798784 (kG*kA*kG*dT*d[5mC]*dG*dG*d[5mC]*dT*dA*dA*dG*dG*kT*kG*kA; antisense) [compound 798784]” was tested. Which “% Inhibition” value did it give?
The value was 35%.

Same assay, conditions: Hep3B cells, electroporation with 10,000 nM antisense oligonucleotide, approximately 24 hours, primer probe set RTS5062, relative to untreated control cells

Which “% inhibition of SMAD7 mRNA expression” value does the source give for “798744 (antisense kA*kG*k[5mC]*dT*dG*d[5mC]*d[5mC]*dG*d[5mC]*dT*d[5mC]*d[5mC]*dT*kT*k[5mC]*kA) [compound 798744]” here?
The value was 12%.

“798745 (antisense kG*k[5mC]*kA*dG*d[5mC]*dT*d[5mC]*d[5mC]*dA*dG*d[5mC]*dT*dG*k[5mC]*k[5mC]*kG) [compound 798745]” was tested. Which “% inhibition of SMAD7 mRNA expression” value did it give?
Its value is 0%.

How did the “% inhibition of SMAD7 mRNA expression” value turn out when “798746 (antisense kT*kG*kG*dA*dG*d[5mC]*dA*dG*d[5mC]*dA*dG*d[5mC]*dT*k[5mC]*k[5mC]*kA) [compound 798746]” was run?
The value was 30%.

Which “% inhibition of SMAD7 mRNA expression” value does the source give for “798747 (antisense k[5mC]*kG*kG*d[5mC]*d[5mC]*dT*dG*dG*dA*dG*d[5mC]*dA*dG*k[5mC]*kA*kG) [compound 798747]” here?
Its value is 14%.

“798748 (antisense k[5mC]*kT*k[5mC]*d[5mC]*dA*d[5mC]*dG*dG*d[5mC]*d[5mC]*dT*dG*dG*kA*kG*k[5mC]) [compound 798748]” was tested. Which “% inhibition of SMAD7 mRNA expression” value did it give?
Its value is 58%.

For “798749 (antisense kG*kG*kA*d[5mC]*dT*d[5mC]*d[5mC]*dA*d[5mC]*dG*dG*d[5mC]*d[5mC]*kT*kG*kG) [compound 798749]”, which “% inhibition of SMAD7 mRNA expression” value is on record?
The value was 63%.

“798750 (antisense kA*kG*kG*dA*dG*dG*d[5mC]*dA*d[5mC]*dG*d[5mC]*dG*dG*kT*kG*k[5mC]) [compound 798750]” was tested. Which “% inhibition of SMAD7 mRNA expression” value did it give?
The value was 54%.

Which “% inhibition of SMAD7 mRNA expression” value does the source give for “798758 (kG*k[5mC]*kT*dG*d[5mC]*dG*d[5mC]*dA*dG*dG*d[5mC]*dT*dG*k[5mC]*kG*k[5mC]; antisense) [compound 798758]” here?
Its value is 0%.

Which “% inhibition of SMAD7 mRNA expression” value does the source give for “798759 (kG*kG*k[5mC]*dG*dG*d[5mC]*dT*dG*d[5mC]*dG*d[5mC]*dA*dG*kG*k[5mC]*kT; antisense) [compound 798759]” here?
The value was 40%.

“798760 (kG*kA*kG*dG*dG*d[5mC]*dG*dG*d[5mC]*dT*dG*d[5mC]*dG*k[5mC]*kA*kG; antisense) [compound 798760]” was tested. Which “% inhibition of SMAD7 mRNA expression” value did it give?
Its value is 47%.

“798761 (kG*kA*k[5mC]*dG*dA*dG*dG*dG*d[5mC]*dG*dG*d[5mC]*dT*kG*k[5mC]*kG; antisense) [compound 798761]” was tested. Which “% inhibition of SMAD7 mRNA expression” value did it give?
Its value is 39%.

How did the “% inhibition of SMAD7 mRNA expression” value turn out when “798762 (kT*kA*kG*dG*dA*d[5mC]*dG*dA*dG*dG*dG*d[5mC]*dG*kG*k[5mC]*kT; antisense) [compound 798762]” was run?
Its value is 56%.

Which “% inhibition of SMAD7 mRNA expression” value does the source give for “798763 (kG*kA*kG*dT*dA*dG*dG*dA*d[5mC]*dG*dA*dG*dG*kG*k[5mC]*kG; antisense) [compound 798763]” here?
Its value is 53%.

With “798765 (kA*kA*k[5mC]*dA*d[5mC]*dT*dT*dT*dG*d[5mC]*dA*d[5mC]*dA*kG*k[5mC]*kA; antisense) [compound 798765]” as the substance, how does the “% inhibition of SMAD7 mRNA expression” value read?
Its value is 63%.

With “798773 (kT*kG*kA*d[5mC]*dT*dT*d[5mC]*d[5mC]*dG*dA*dG*dG*dA*kA*kT*kG; antisense) [compound 798773]” as the substance, how does the “% inhibition of SMAD7 mRNA expression” value read?
The value was 40%.

For “798774 (kT*kT*kG*dA*d[5mC]*dT*dT*d[5mC]*d[5mC]*dG*dA*dG*dG*kA*kA*kT; antisense) [compound 798774]”, which “% inhibition of SMAD7 mRNA expression” value is on record?
Its value is 12%.

Which “% inhibition of SMAD7 mRNA expression” value does the source give for “798775 (k[5mC]*k[5mC]*kT*d[5mC]*dT*dT*dG*dA*d[5mC]*dT*dT*d[5mC]*d[5mC]*kG*kA*kG; antisense) [compound 798775]” here?
Its value is 0%.

With “798776 (kA*k[5mC]*kA*d[5mC]*dA*dG*d[5mC]*d[5mC]*dT*d[5mC]*dT*dT*dG*kA*k[5mC]*kT; antisense) [compound 798776]” as the substance, how does the “% inhibition of SMAD7 mRNA expression” value read?
Its value is 34%.

For “798777 (kG*k[5mC]*kA*dA*d[5mC]*dA*d[5mC]*dA*dG*d[5mC]*d[5mC]*dT*d[5mC]*kT*kT*kG; antisense) [compound 798777]”, which “% inhibition of SMAD7 mRNA expression” value is on record?
Its value is 20%.

Which “% inhibition of SMAD7 mRNA expression” value does the source give for “798778 (k[5mC]*kA*k[5mC]*dA*dG*d[5mC]*dA*dA*d[5mC]*dA*d[5mC]*dA*dG*k[5mC]*k[5mC]*kT; antisense) [compound 798778]” here?
Its value is 64%.

How did the “% inhibition of SMAD7 mRNA expression” value turn out when “798779 (kA*kT*kT*d[5mC]*dA*d[5mC]*dA*dG*d[5mC]*dA*dA*d[5mC]*dA*k[5mC]*kA*kG; antisense) [compound 798779]” was run?
Its value is 31%.

How did the “% inhibition of SMAD7 mRNA expression” value turn out when “798780 (kA*kA*kG*dA*dT*dT*d[5mC]*dA*d[5mC]*dA*dG*d[5mC]*dA*kA*k[5mC]*kA; antisense) [compound 798780]” was run?
Its value is 58%.

For “798785 (k[5mC]*kT*kA*dG*dT*dT*d[5mC]*dG*d[5mC]*dA*dG*dA*dG*kT*k[5mC]*kG; antisense) [compound 798785]”, which “% inhibition of SMAD7 mRNA expression” value is on record?
Its value is 0%.

“798786 (kA*k[5mC]*kT*d[5mC]*dT*dA*dG*dT*dT*d[5mC]*dG*d[5mC]*dA*kG*kA*kG; antisense) [compound 798786]” was tested. Which “% inhibition of SMAD7 mRNA expression” value did it give?
The value was 11%.

How did the “% inhibition of SMAD7 mRNA expression” value turn out when “798787 (kG*kA*kG*dA*d[5mC]*dT*d[5mC]*dT*dA*dG*dT*dT*d[5mC]*kG*k[5mC]*kA; antisense) [compound 798787]” was run?
The value was 20%.

For “798788 (kT*k[5mC]*kT*dG*dG*dA*dG*dT*dA*dA*dG*dG*dA*kG*kG*kG; antisense) [compound 798788]”, which “% inhibition of SMAD7 mRNA expression” value is on record?
Its value is 31%.

How did the “% inhibition of SMAD7 mRNA expression” value turn out when “798789 (kG*kT*kA*dT*d[5mC]*dT*dG*dG*dA*dG*dT*dA*dA*kG*kG*kA; antisense) [compound 798789]” was run?
Its value is 44%.

For “798790 (k[5mC]*kG*kG*dG*dT*dA*dT*d[5mC]*dT*dG*dG*dA*dG*kT*kA*kA; antisense) [compound 798790]”, which “% inhibition of SMAD7 mRNA expression” value is on record?
The value was 49%.

With “798791 (k[5mC]*kA*kT*d[5mC]*dG*dG*dG*dT*dA*dT*d[5mC]*dT*dG*kG*kA*kG; antisense) [compound 798791]” as the substance, how does the “% inhibition of SMAD7 mRNA expression” value read?
Its value is 25%.

Same assay, conditions: Hep3B cells, electroporation, 10,000 nM antisense oligonucleotide, approximately 24 hours, RTS5062, relative to untreated control cells

Which “% inhibition of SMAD7 mRNA expression” value does the source give for “798806 (kT*kG*kA*dA*dA*dG*d[5mC]*d[5mC]*d[5mC]*d[5mC]*d[5mC]*d[5mC]*dA*kG*kG*kG; antisense) [compound 798806]” here?
Its value is 50%.

Reference: patent publication US10517889B2, “Modulators of SMAD7 expression” (Ionis Pharmaceuticals, Inc., priority 2017, dated 2019)
